# Measurements reported in PubChem BioAssay AID1919016 (Molecular Pharmacology Branch, DTP, NCI, 2023).
# pIC50: −log10 of the molar value.
# Tested on: NCI-H196 complex spheroid growth, percent test/control
# Experiment: Anticancer human tumor NCI-H196 cell line growth inhibition [AhR];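 also: seven days of drug exposure starting three days after plating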;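 as to viability, T/C: 100% = DMSO vehicle control wells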
# Settings: for pIC50: curve of first compound; for viability, T/C: stronger effect = lower value
# Method in brief: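 Agents were dosed in half-log steps down from roughly clinical Cmax, or from 10 microM where Cmax was unknown, alone and with AhR antagonists. Read-out: percent test/control growth of tumor spheroids containing HUVEC and MSC stromal cells.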
# [1] = second compound 0.1 µM, first compound 0.0316 µM
# [2] = second compound 0.1 µM, first compound 0.1 µM
# [3] = second compound 0.1 µM, first compound 0.316 µM
# [4] = second compound 0.1 µM, first compound 1 µM
# [5] = second compound 0.316 µM, first compound 0.0316 µM
# [6] = second compound 0.316 µM, first compound 0.1 µM
# [7] = second compound 0.316 µM, first compound 0.316 µM
# [8] = second compound 0.316 µM, first compound 1 µM
# [9] = second compound 1 µM, first compound 0.0316 µM
# [10] = second compound 1 µM, first compound 0.1 µM
# [11] = second compound 1 µM, first compound 0.316 µM
# [12] = second compound 1 µM, first compound 1 µM
# [13] = second compound 3.16 µM, first compound 0.0316 µM
# [14] = second compound 3.16 µM, first compound 0.1 µM
# [15] = second compound 3.16 µM, first compound 0.316 µM
# [16] = second compound 3.16 µM, first compound 1 µM
# [17] = second compound 10 µM, first compound 0.0316 µM
# [18] = second compound 10 µM, first compound 0.1 µM
# [19] = second compound 10 µM, first compound 0.316 µM
# [20] = second compound 10 µM, first compound 1 µM
structure (smiles),measurement,setting,value
Nc1ncn(C2CC(O)C(CO)O2)c(=O)n1 (stereo not given) + Cc1ccccc1N=Nc1ccc(NC(=O)c2ccnn2C)c(C)c1,pIC50,second compound 0.1 µM,< 6.00
same,pIC50,second compound 0.316 µM,< 6.00
same,pIC50,second compound 1 µM,< 6.00
same,pIC50,second compound 3.16 µM,< 6.00
same,pIC50,second compound 10 µM,< 6.00
same,"viability, T/C","second compound 0.1 µM, first compound 0.00316 µM",92.6%
same,"viability, T/C","second compound 0.1 µM, first compound 0.01 µM",105%
same,"viability, T/C",[1],94.7%
same,"viability, T/C",[2],94.4%
same,"viability, T/C",[3],104%
same,"viability, T/C",[4],96.6%
same,"viability, T/C","second compound 0.316 µM, first compound 0.00316 µM",104%
same,"viability, T/C","second compound 0.316 µM, first compound 0.01 µM",104%
same,"viability, T/C",[5],108%
same,"viability, T/C",[6],103%
same,"viability, T/C",[7],108%
same,"viability, T/C",[8],96.4%
same,"viability, T/C","second compound 1 µM, first compound 0.00316 µM",88.7%
same,"viability, T/C","second compound 1 µM, first compound 0.01 µM",104%
same,"viability, T/C",[9],106%
same,"viability, T/C",[10],101%
same,"viability, T/C",[11],84.9%
same,"viability, T/C",[12],94.5%
same,"viability, T/C","second compound 3.16 µM, first compound 0.00316 µM",97%
same,"viability, T/C","second compound 3.16 µM, first compound 0.01 µM",86.9%
same,"viability, T/C",[13],105%
same,"viability, T/C",[14],86.4%
same,"viability, T/C",[15],92.5%
same,"viability, T/C",[16],89.8%
same,"viability, T/C","second compound 10 µM, first compound 0.00316 µM",90%
same,"viability, T/C","second compound 10 µM, first compound 0.01 µM",97.3%
same,"viability, T/C",[17],87.6%
same,"viability, T/C",[18],86.7%
same,"viability, T/C",[19],78.7%
same,"viability, T/C",[20],83%
CCN(c1cc(-c2ccc(CN3CCOCC3)cc2)cc(C(=O)NCc2c(C)cc(C)[nH]c2=O)c1C)C1CCOCC1 + Cc1cncc(-c2nc(NCCc3c[nH]c4ccccc34)c3ncn(C(C)C)c3n2)c1,pIC50,second compound 0.1 µM,< 5.52
same,pIC50,second compound 0.316 µM,< 5.52
same,pIC50,second compound 1 µM,< 5.52
same,pIC50,second compound 3.16 µM,< 5.52
same,pIC50,second compound 10 µM,< 5.52
same,"viability, T/C","second compound 0.1 µM, first compound 0.00949 µM",103%
same,"viability, T/C","second compound 0.1 µM, first compound 0.03 µM",97.3%
same,"viability, T/C","second compound 0.1 µM, first compound 0.0949 µM",97.7%
same,"viability, T/C","second compound 0.1 µM, first compound 0.3 µM",96.9%
same,"viability, T/C","second compound 0.1 µM, first compound 0.949 µM",99.3%
same,"viability, T/C","second compound 0.1 µM, first compound 3 µM",97.3%
same,"viability, T/C","second compound 0.316 µM, first compound 0.00949 µM",106%
same,"viability, T/C","second compound 0.316 µM, first compound 0.03 µM",98.8%
same,"viability, T/C","second compound 0.316 µM, first compound 0.0949 µM",102%
same,"viability, T/C","second compound 0.316 µM, first compound 0.3 µM",92.4%
same,"viability, T/C","second compound 0.316 µM, first compound 0.949 µM",99%
same,"viability, T/C","second compound 0.316 µM, first compound 3 µM",98.8%
same,"viability, T/C","second compound 1 µM, first compound 0.00949 µM",103%
same,"viability, T/C","second compound 1 µM, first compound 0.03 µM",101%
same,"viability, T/C","second compound 1 µM, first compound 0.0949 µM",111%
same,"viability, T/C","second compound 1 µM, first compound 0.3 µM",97%
same,"viability, T/C","second compound 1 µM, first compound 0.949 µM",92.2%
same,"viability, T/C","second compound 1 µM, first compound 3 µM",93.3%
same,"viability, T/C","second compound 3.16 µM, first compound 0.00949 µM",109%
same,"viability, T/C","second compound 3.16 µM, first compound 0.03 µM",105%
same,"viability, T/C","second compound 3.16 µM, first compound 0.0949 µM",114%
same,"viability, T/C","second compound 3.16 µM, first compound 0.3 µM",106%
same,"viability, T/C","second compound 3.16 µM, first compound 0.949 µM",104%
same,"viability, T/C","second compound 3.16 µM, first compound 3 µM",121%
same,"viability, T/C","second compound 10 µM, first compound 0.00949 µM",86.9%
same,"viability, T/C","second compound 10 µM, first compound 0.03 µM",81.2%
same,"viability, T/C","second compound 10 µM, first compound 0.0949 µM",86.5%
same,"viability, T/C","second compound 10 µM, first compound 0.3 µM",81.1%
same,"viability, T/C","second compound 10 µM, first compound 0.949 µM",87.2%
same,"viability, T/C","second compound 10 µM, first compound 3 µM",90.1%
COc1cc(C2c3cc4c(cc3C(OC3OC5COC(C)OC5C(O)C3O)C3COC(=O)C23)OCO4)cc(OC)c1O (stereo not given) + Cc1ccccc1N=Nc1ccc(NC(=O)c2ccnn2C)c(C)c1,pIC50,second compound 0.1 µM,< 5.00
same,pIC50,second compound 0.316 µM,< 5.00
same,pIC50,second compound 1 µM,< 5.00
same,pIC50,second compound 3.16 µM,< 5.00
same,pIC50,second compound 10 µM,< 5.00
same,"viability, T/C",[1],97.3%
same,"viability, T/C",[2],93.5%
same,"viability, T/C",[3],87.4%
same,"viability, T/C",[4],86.2%
same,"viability, T/C","second compound 0.1 µM, first compound 3.16 µM",87.9%
same,"viability, T/C","second compound 0.1 µM, first compound 10 µM",76.8%
same,"viability, T/C",[5],92.1%
same,"viability, T/C",[6],95%
same,"viability, T/C",[7],96.8%
same,"viability, T/C",[8],89.8%
same,"viability, T/C","second compound 0.316 µM, first compound 3.16 µM",91.2%
same,"viability, T/C","second compound 0.316 µM, first compound 10 µM",75.6%
same,"viability, T/C",[9],93.5%
same,"viability, T/C",[10],94.6%
same,"viability, T/C",[11],93.5%
same,"viability, T/C",[12],92.1%
same,"viability, T/C","second compound 1 µM, first compound 3.16 µM",100%
same,"viability, T/C","second compound 1 µM, first compound 10 µM",74.3%
same,"viability, T/C",[13],89%
same,"viability, T/C",[14],94.7%
same,"viability, T/C",[15],91.4%
same,"viability, T/C",[16],79.5%
same,"viability, T/C","second compound 3.16 µM, first compound 3.16 µM",87.1%
same,"viability, T/C","second compound 3.16 µM, first compound 10 µM",75.3%
same,"viability, T/C",[17],85.7%
same,"viability, T/C",[18],84.3%
same,"viability, T/C",[19],89.3%
same,"viability, T/C",[20],93%
same,"viability, T/C","second compound 10 µM, first compound 3.16 µM",88%
same,"viability, T/C","second compound 10 µM, first compound 10 µM",78.9%
